“And” between values parts separate entries of the source, which are not always exact repeats. Identical values can stand only once.
Assay: HPLC-analysis of extracted lard with heating (Example 1; also reproducibility test)
Design: species or system pig
Method: The present Example illustrates the extraction on the entire sample of lard and the determination of indole and skatole by HPLC.
A sample of lard of 5 g is taken subcutaneously from the occipital region of a carcass. The sample is placed in a container and heated at 80° C. for 10 minutes in microwave oven in order to melt the fat. An amount of 5 ml of methanol is then added to the sample which is shaken, whereupon the sample is extracted for 10 minutes. Subsequently, the sample is filtered to remove the fat and connective tissue and analyzed by HPLC under the following conditions:
HPLC-apparatus: Merck HPLC with fluorescence detector and autosampler,
Eluant: water:methanol (20:80) (volume:volume)
Fluorescence detector: excitation wavelength=285 nm, emission wavelength=340 nm
Column: Lichrocart 250-4, Lichrospher 100 RP18, 5 micron, reverse phase
Injection volume: 20 microliter,
Detection limit: 5 ppb (0,005 ppm) in solution […]
The samples were such analyzed 10 times.

With `Cc1c[nH]c2ccccc12` [Skatole, skatole] as the compound, how does the “ppb skatole at HPLC-analysis, overall average” value (Table 2, 4 samples, n = 40) read?
Its value is 48.47 ppb.

What about the “ppb skatole at HPLC-analysis, highest” value (Table 2, samples 1-4) of the same compound?
The value was 50.00 ppb and 50.93 ppb and 52.80 ppb and 51.87 ppb.

And the “ppb skatole at HPLC-analysis, lowest” value (Table 2, samples 1-4)?
Its value is 44.13 ppb and 43.87 ppb and 49.07 ppb.

What about the “ppb skatole at HPLC-analysis, average per sample” value (Table 2, samples 1-4, 10 analyses each) of the same compound?
The value was 47.61 ppb and 47.63 ppb and 50.67 ppb and 47.96 ppb.

What about the “ppb skatole at HPLC-analysis, overall average” value (Table 3, 3 samples, n = 30) of the same compound?
Its value is 71.38 ppb.

What about the “ppb skatole at HPLC-analysis” value (Table 3, sample 1, analyses 1-10) of the same compound?
The value was 72.00 ppb and 69.33 ppb and 74.67 ppb and 77.33 ppb.

And the “ppb skatole at HPLC-analysis” value (Table 3, sample 2, analyses 1-10)?
The value was 74.67 ppb and 69.33 ppb and 66.67 ppb and 72.00 ppb.

And the “ppb skatole at HPLC-analysis” value (Table 3, sample 3, analyses 1-10)?
The value was 72.00 ppb and 69.33 ppb and 66.67 ppb.

What about the “ppb skatole at HPLC-analysis, highest” value (Table 3, samples 1-3) of the same compound?
The value was 77.33 ppb and 74.67 ppb and 72.00 ppb.

What about the “ppb skatole at HPLC-analysis, lowest” value (Table 3, samples 1-3) of the same compound?
Its value is 69.33 ppb and 66.67 ppb.

What about the “ppb skatole at HPLC-analysis, average per sample” value (Table 3, samples 1-3, 10 analyses each) of the same compound?
The value was 73.60 ppb and 70.13 ppb and 70.40 ppb.

From patent publication US5344780A, “Method for determining indole compounds associated with boar taint in pork as well as a sample container to be used in the method” (priority 1990, dated 1994)
